Data reported in US20260151413A1, “ANTICANCER DRUG CONJUGATES” (Ariel Scientific Innovations Ltd., priority 2022, published 2026).

Columns and labels:
MINO = experiment: WST-1 proliferation assay, MINO; type: cell-based, human; settings: Homo sapiens, MINO; WST-1, 48 hours of treatment
Experimental: (§1) Albert Pinhasov (Ariel University, Ariel, Israel). […] Granta cells were kindly provided by Prof.
(§2) Table 3 [resents the calculated IC50 values (μM) for each chimera in different hematological malignancies cell-lines. The proliferation rate was measured by WST-1 assay after 48 hours of treatment. The result shown for each concentration point represents the […]

GRANTA = experiment: WST-1 proliferation assay, GRANTA; type: cell-based; settings: WST-1, 48 hours of treatment
Experimental: as §1, §2

Rec-1 = experiment: WST-1 proliferation assay, Rec-1; type: cell-based, human; settings: Homo sapiens, Rec1; WST-1, 48 hours of treatment
Experimental: as §1, §2

OCI-AML3 = experiment: WST-1 proliferation assay, OCI-AML3; type: cell-based; settings: Homo sapiens, OCI-AML-3; WST-1, 48 hours of treatment
Experimental: as §1, §2

MUTZ5 = experiment: WST-1 proliferation assay, MUTZ5; type: cell-based, human; settings: Homo sapiens; WST-1, 48 hours of treatment
Experimental: as §1, §2

[1] = system: aggressive papillary thyroid cancer cells; experiment: Proliferation of aggressive papillary thyroid cancer cells; type: cell-based; settings: 10 nM and 100 nM, with respect to DMSO control
Experimental: Chimera 9 (also referred to herein as Doxorubizen) was evaluated in two different concentrations (10 nM and 100 nM) on aggressive papillary thyroid cancer and with respect to the parent anticancer drug Doxorubicin.

BV-173 cells = experiment: DNA damage by dual staining of pH2A.X and pATM; type: cell-based; settings: 50 nM, 3 hours, compared to the parental drug
Experimental: BV-173 cells (2×10^5 cells/well) were treated with DMSO, Doxorubicin or Doxorubizen. After incubation for 3 hours, phosphorylation level of ATM and H2AX was measured by Muse cell analyzer using Muse Multi-Color DNA Damage Kit (Luminex Corporation, Part number: MCH200107) according to manufacturer's instructions. Phosphorylation levels were determined using Guava software (Luminex/Millipore, USA, version 3.3).
BV-173 cells were exposed to 50 nM chimera 9 or the non-conjugated drug Doxorubicin, and DNA damage was analyzed after 3 hours by using dual staining of phospho-Histone H2A.X (Ser139) and phospho-ATM (Ser1981) antibodies.

`COC(=O)N(C)/N=N/c1ccc(CNC2CC(OC3CC(O)(C(=O)CO)Cc4c(O)c5c(c(O)c43)C(=O)c3c(OC)cccc3C5=O)OC(C)C2O)cc1` (stereo not shown) [Chimera 9, (E)-methyl-3-(4-(((3-hydroxy-2-methyl-6-((3,5,12-trihydroxy-3-(2-hydroxyacetyl)-10-methoxy-6,11-dioxo-1,2,3,4,6,11-hexahydrotetracen-1-yl)oxy)tetrahydro-2H-pyran-4-yl)amino)methyl)phenyl)-1-methyltriaz-2-ene-1-carboxylate] gave an IC50 (MINO) of 0.48 µM, an IC50 (GRANTA) of 2.59 µM and an IC50 (Rec-1) of 0.52 µM. For the same compound, the IC50 (OCI-AML3) was 1.24 µM, the IC50 (MUTZ5) was 0.52 µM and the “proliferation of thyroid cancer cells” value [1] was “reduce significantly the proliferation”. For the same compound, the “DNA damage: co-activation of pH2A.X and pATM” value (BV-173 cells) was “significant co-activation of pH2A.X and pATM”.
